# Experimental data published in patent US7105664B2, “5-Halogen-6-phenyl-7-fluoroalkylamino-triazolopyrimidines as fungicides” (BASF Aktiengesellschaft, priority 2001, dated 2006).
# Experiments:
# [1] = tested on: Pyricularia oryzae; assay type: in vivo; details: 200 ppm, rice seedlings variety Tai-Nong 67, protective; untreated plants infected to 90%
# [2] = tested on: Blumeria graminis f. sp. tritici; test: Control of powdery mildew on wheat, Comparison Trial 2; assay type: in vivo; details: wheat variety Kanzler, untreated plants infected to 100%
SMILES,infection (% diseased leaf area) [1] [%],infection (% diseased leaf area) ([2]; 50 ppm) [%],infection (% diseased leaf area) ([2]; 200 ppm) [%]
Fc1cc(F)c(-c2c(Cl)nc3ncnn3c2NCC(F)C(F)(F)F)c(F)c1 (stereo not drawn) [I-1],3,,
CC(Nc1c(-c2c(F)cccc2F)c(Cl)nc2ncnn12)C(F)(F)F (stereo not drawn) [C],20,,
COc1cc(F)c(-c2c(Cl)nc3ncnn3c2NCC(F)(F)F)c(F)c1 [D],,80,60
COc1cc(F)c(-c2c(Cl)nc3ncnn3c2NC(C)C(F)(F)F)c(F)c1 (stereo not drawn) [E],,80,80
Fc1cc(F)c(-c2c(Cl)nc3ncnn3c2NCC(F)(F)F)c(F)c1 [A],60,,
Fc1cccc(Cl)c1-c1c(Cl)nc2ncnn2c1NCC(F)(F)F [B],10,,
COc1cc(F)c(-c2c(Cl)nc3ncnn3c2NCCC(F)(F)F)c(F)c1 [I-7],,7,3
FC(F)=C(F)CCNc1c(-c2c(F)cc(F)cc2F)c(Cl)nc2ncnn12 [I-2],3,,
CC(CNc1c(-c2c(F)cc(F)cc2F)c(Cl)nc2ncnn12)CC(F)(F)F (stereo not drawn) [I-3],3,,
